≈ marks a conversion by molar mass, not a printed value. Calls of active or inactive are those of the source. The calls are words filed in the database; no cut-off is given here.
Assays:
[1] = system: Mycobacterium tuberculosis; assay: Antimycobacterial activity against Mycobacterium tuberculosis H37Rv ATCC 27294 after 7 days by microplate alamar blue assay; assay type: functional; conditions: H37Rv ATCC 27294, 168 h
[2] = Cytotoxicity against human embryonic lung cells; assay type: cell-based
[3] = Cytotoxicity against cat CRFK cells; assay type: cell-based, Felis catus
[4] = system: Human immunodeficiency virus; assay: Antiviral activity against HIV at subtoxic concentration; assay type: functional, organism-based
L1210 = assay: Cytostatic activity against mouse L1210 cells assessed as inhibition of cell proliferation after 2 days by particle counter assay; assay type: functional, cell-based; conditions: L1210, 48 h
FM3A = assay: Cytostatic activity against mouse FM3A cells assessed as inhibition of cell proliferation after 2 days by particle counter assay; assay type: functional, cell-based; conditions: 48 h
CCRF-CEM = assay: Cytostatic activity against human CEM cells assessed as inhibition of cell proliferation after 3 days by particle counter assay; assay type: functional, cell-based; conditions: 72 h
HeLa = assay: Cytostatic activity against human HeLa cells assessed as inhibition of cell proliferation after 3 days by particle counter assay; assay type: functional, cell-based; conditions: 72 h
[5] = system: Mycobacterium tuberculosis; assay: Antimycobacterial activity against Mycobacterium tuberculosis H37Rv ATCC 27294 at […] after 7 days by microplate alamar blue assay; assay type: functional; conditions: H37Rv ATCC 27294, 168 h

Row | SMILES | MIC [1] [µM] | Activity [4] | IC50 (L1210) [µM] | IC50 (FM3A) [µM] | IC50 (CCRF-CEM) [µM] | IC50 (HeLa) [µM] | further results
1 | NNC(=O)c1ccncc1 [ISONIAZID] | 0.12 (≈ 0.0165 µg/mL) | – | – | – | – | – | –
2 | COc1c(N2C[C@@H]3CCCN[C@@H]3C2)c(F)cc2c(=O)c(C(=O)O)cn(C3CC3)c12 [MOXIFLOXACIN] | 0.47 (≈ 0.189 µg/mL) | – | – | – | – | – | –
3 | COC(=O)c1c(C)nc(NCc2ccccc2)nc1-c1ccccc1 | – | – | – | – | – | – | MCC [2]: 4 µg/mL; MCC [3]: 4 µg/mL
4 | CCOC(=O)c1c(C)nc(Cl)nc1-c1ccccc1 | – | inactive | – | – | – | – | –
5 | CCOC(=O)c1cnc(NCc2ccccc2)nc1C | – | inactive | 378 | 306 | 480 | 147 | –
6 | CCOC(=O)c1c(C)nc(N2CCOCC2)nc1-c1ccccc1 | 125 (≈ 41 µg/mL) | inactive | > 500 | > 500 | ≥ 500 | ≥ 500 | inhibition at […] [5]: 96%
7 | O=[N+]([O-])c1cn2c(n1)OC[C@@H](OCc1ccc(OC(F)(F)F)cc1)C2 [PRETOMANID] | 0.48 (≈ 0.172 µg/mL) | – | – | – | – | – | –
8 | COC(=O)c1c(C)nc(Cl)nc1-c1ccccc1 | – | inactive | – | – | – | – | –
9 | CCOC(=O)c1c(C)nc(NCCc2c[nH]c3ccccc23)nc1-c1ccccc1 | – | inactive | 28 | 34 | 31 | 23 | –
